Test results: patent US20060270643A1, “Hyfroxyflutamide induced pathways related to androgen receptor negative prostate cancer cells” (priority 2002, published 2006)

Assays:
cyclin D1 = assay: Western blot of cyclin D1 and cell cycle related gene products in DU145 cells; assay type: cell-based, human
Protocol: (§1) 11. […] (A) DU145 cells were treated with HF (1 μM), or EGF (10 ng/ml), or ethanol vehicle for 12 hours after the serum starvation. Cells were lysed and blotted with anti-cyclin D1 antibody. (B) DU145 cells were serum starved for 24 hours and then co-transfected DN Ras or DN Raf together with […] Luc reporter with SuperFect (Qiagen). After 4 hours, the medium was changed to normal medium (10% serum) for 18 hours and then changed to serum starvation condition for another 24 hours and then treated with HF, EGF, or ethanol vehicle control. Cells were lysed for luciferase activity analysis.

[1] = tested on: cyclin D1 promoter (−1745D1-Luc); assay: Cyclin D1 promoter luciferase reporter assay in DU145 cells; assay type: cell-based, human; conditions: 10^−6 M HF or 30 ng/ml EGF
Protocol: as §1
197. DU145 cells were obtained from American Type Culture Collection and cultured in Dubecco's modified Eagles's medium (DMEM) supplemented with 10% fetal bovine serum (FBS). Cells (1×10^5) were seeded in 35 mm plates and transfected with the SuperFect transfection reagent (Qiagen, Chatworth, Calif.). After 4 hours the media were changed to serum-free DMEM media for 24 hours. Thereafter, the cells were treated with HF, EGF, and vehicle for 18 hours and then lysed for luciferase assay. Luciferase activity was normalized for taansfection efficiency using pRL-TK as an internal control. Luciferase assays were performed using dual-luciferase reporter system (Promega, Madison, Wis.).

EGFR = molecular target: T1, EGFR (Homo sapiens, UniProt P00533); assay: EGFR immunoprecipitation and anti-phosphotyrosine immunoblot in DU145 cells; assay type: cell-based; conditions: 1 μM HF, 20 min
T1 construct: endogenous in cells; host or cells: DU145
Protocol: (§2) 9. […] After 15 min treatment, cells were lysed and immunoblotted with anti-phospho ERK1/2 and antiERK1/2 antibodies. […] EGFR was immunoprecipitated from the cell lysates, and their phosphotyrosine level was determined by anti-phosphotyrosine antibody. All the results were visualized using enhanced chemiluminescence.

[2] = tested on: association between Ras and Raf; assay: Ras-Raf immunoprecipitation assay in DU145 cells; assay type: cell-based, human; conditions: lysates of treated DU145 cells; 1 μM HF, 10 ng/ml EGF, 1 μM 9-cis retinoic acid
Protocol: 8. […] (A) DU145 cells were treated with ethanol (lane 1), 10 ng/ml EGF (lane 2), 1 μM 9-cis retinoic acid (lane 3), and 1 μM HF (lane 4) after 24 hour serum starvation. Cells were lysed and 300 μg of total protein were immunoprecipitated with anti-Ras antibody, pulled-down by a protein A/G agarose beads, and detected with an anti-Raf antibody. (B) DU145 cells were transfected with pCDNA3.1 or pCDNA3.1-Ras N17 as indicated. After 24 hours serum starvation, the cells were treated with different ligands for 20 min, and then harvested. Western blots were performed with antibodies against phosphoERK1/2 and ERK1/2. The density of phospho-ERK1/2 shown as Optical Density (OD) were determined by the Versa Doc Imaging System (Bio-Rad) and quantified by Quantity One software.
200. Serum-stared and treated DU145 cells were lysed with RIPA buffer for 30 min on ice. Lysates were then centrifuiged at 12,000 g for 10 min at 4° C. and protein concentrations were determined by the Bradford assay. 500 μg of cell lysates were incubated for 4 hours with either anti-Ras or anti-EGFR antibody (1/100, Santa Cruz Biotechnology) to the protein-antibody mixture and then added in 20 μl of protein A/G plus-agarose (Santa Cruz Biotechnology) for another 4 hours incubation with constant rotation. The immunoprecipitates were washed four times with cold PBS, resolved by SDS-PAGE, and immunoblotted by anti-Raf-1 antibody, or anti-phospho-tyrosine monoclonal antibody (Oncogene Research, Calbiochem, La Jolla, Calif.). The results were visualized by chemiluminescence.

[3] = tested on: MAP kinase in LNCaP cells; assay: Immunoblot of phospho-ERK1/2 in LNCaP cells; assay type: cell-based, human; conditions: LNCaP cells (data not shown)
[4] = tested on: p44/42 MAP kinase (ERK1 and 2); assay: Immunoblot of phosphorylated p44/42 MAP kinase in DU145 cells; assay type: cell-based, human
Protocol: 7. […] (A) DU145 cells were grown in 100 mm dishes and serum-starved for 24 hours. The cells were lysed on ice. Equal amounts of cell lysate were analyzed by 12% SDS-PAGE and subsequent immunoblotted with anti-phospho ERK1/2 and anti-ERK1/2 antibodies. (B) Different cell lines, at 70 to 80% confluence, were lysed and immunoblotted with anti-AR polyclonal antibody, NH27. (C) DU145 cells were pre-incubated with MEK1/2 inhibitor U0126, or U0124 before HF, EGF, and ethanol treatment. Cells were lysed and immunoblotted with anti-phospho ERK1/2 and anti-ERK1/2 antibodies. (D) CWR2 and (E) PC3-AR cells were grown in 100 mm dishes and serum-starved for 24 hours. The cells were treated with HF, EGF or ethanol vehicle for 15 mins and immunoblotted with anti-phospho-ERK1/2 and anti-ERK1/2 antibodies. […] MMTV-ARE-Luc reporter plasmid was cotransfected with or without pSG5AR into DU145 cells. After 18 hours, cells were treated with 1 nM DHT, 1 μM HF or both for another 18 hours, and then harvested. Cell lysates were collected and assayed for the luciferase activity.
as §2
198. This assay uses a polyclonal antibody specific against the activated p44/42 MAP kinases (Cell Signaling Technology, Beverly, Mass.), which detects p44 and p42 MAP kinase (ERK1 and 2) only when catalytically activated by dual phosphorylation at Thr202 and Tyr204. DU145 cells were seeded at 1×10^5 cells per 100 mm plate and allowed to attach overnight and then the media were replaced with serum-free DMEM media for 24 hours. The cells were pre-treated with MAP kinase inhibitors, EGFR antibodies, or cycloheximide for 1 hour and followed by HF, EGF, or vehicle treatment. Cells were washed twice with PBS, harvested at indicated times, and lyzed with RIPA buffer for 30 min on ice. The protein concentrations were determined by Bradford assay, and equal amount of protein was resolved by SDS-PAGE. Gels were transferred, immunoblotted with p44/42 MAP kinase antibody (1/1000), and then incubated with secondary antibody. Proteins were visualized by the enhanced chemiluminescence system (NEN™ Life Science Products, Boston, Mass.). P44/42 MAP kinase (total ERK1/2) was blotted as a control.

[5] = tested on: MAP kinase in PC-3 stably transfected with AR (PC3-AR2); assay: Immunoblot of phospho-ERK1/2 in PC3-AR2 cells; assay type: cell-based, human; conditions: 15 mins
[6] = HF at 1 μM, serum-starved DU145 cells

T1 sequence (P00533 25-1210): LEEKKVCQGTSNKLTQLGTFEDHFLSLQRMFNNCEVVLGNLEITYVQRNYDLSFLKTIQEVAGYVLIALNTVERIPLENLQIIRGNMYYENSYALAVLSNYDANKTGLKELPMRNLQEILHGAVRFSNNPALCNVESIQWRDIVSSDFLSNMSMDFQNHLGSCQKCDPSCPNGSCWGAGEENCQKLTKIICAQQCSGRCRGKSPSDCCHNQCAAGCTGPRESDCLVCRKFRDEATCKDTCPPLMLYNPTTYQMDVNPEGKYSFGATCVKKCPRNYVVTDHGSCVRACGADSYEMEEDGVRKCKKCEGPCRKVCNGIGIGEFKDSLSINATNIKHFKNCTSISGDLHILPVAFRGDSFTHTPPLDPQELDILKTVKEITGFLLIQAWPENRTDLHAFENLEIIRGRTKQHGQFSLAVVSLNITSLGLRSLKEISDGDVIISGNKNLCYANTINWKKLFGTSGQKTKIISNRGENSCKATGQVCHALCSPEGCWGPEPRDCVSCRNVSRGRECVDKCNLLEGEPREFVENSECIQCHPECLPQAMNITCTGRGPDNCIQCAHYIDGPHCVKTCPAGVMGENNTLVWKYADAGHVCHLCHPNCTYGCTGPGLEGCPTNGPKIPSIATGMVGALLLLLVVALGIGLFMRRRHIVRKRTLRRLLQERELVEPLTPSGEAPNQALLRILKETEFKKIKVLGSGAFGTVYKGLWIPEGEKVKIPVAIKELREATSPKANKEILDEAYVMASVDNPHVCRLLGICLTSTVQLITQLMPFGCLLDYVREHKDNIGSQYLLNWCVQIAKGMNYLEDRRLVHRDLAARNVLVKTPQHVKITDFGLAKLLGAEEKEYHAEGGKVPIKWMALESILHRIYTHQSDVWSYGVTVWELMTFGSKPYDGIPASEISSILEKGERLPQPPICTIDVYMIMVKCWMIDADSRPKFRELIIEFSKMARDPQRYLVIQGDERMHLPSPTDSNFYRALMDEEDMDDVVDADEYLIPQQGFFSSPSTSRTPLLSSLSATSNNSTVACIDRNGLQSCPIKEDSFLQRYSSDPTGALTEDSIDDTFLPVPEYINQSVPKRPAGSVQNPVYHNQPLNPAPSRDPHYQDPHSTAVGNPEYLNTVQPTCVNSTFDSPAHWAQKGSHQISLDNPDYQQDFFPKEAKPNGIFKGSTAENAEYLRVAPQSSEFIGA

CC(C)(O)C(=O)Nc1ccc([N+](=O)[O-])c(C(F)(F)F)c1 [HF, hydroxyflutamide]
cyclin D1 expression (cyclin D1; HF (1 μM) or EGF (10 ng/ml) for 12 hours after serum starvation): induced
other cell cycle related gene products (p27, p21, Ki67, PCNA) (cyclin D1; after HF- or EGF-treatment): no significant change
induction of cyclin D1 promoter (−1745D1-Luc) activity [1]: about 2 fold
autophosphorylation of EGFR (EGFR): causes the autophosphorylation of EGFR
Raf detected in the Ras immunocomplex [2]: detected
MAP kinase activation [3]: not
activation of MAP kinase as compared to EGF activation [4]: relatively weak
total MAP kinase (ERK1/2) protein expression ([4]; DU145 cells): no influence
time to activate MAP kinase [4, 6]: ≤ 15 min
time to reach maximum MAP kinase activation [4, 6]: 30 min
MAP kinase activation [5]: activates MAP kinase
